Measurements taken from the NIST ThermoML archive (doi:10.1021/je3009599).

Settings: Liquid

CCCC(=O)OCC [ethyl butanoate]
Settings | vapor or sublimation pressure [kPa]
348.97 K | 22.5
351.83 K | 25
354.39 K | 27.5
356.76 K | 30.03
359 K | 32.51
361.08 K | 35.02
363.04 K | 37.52
364.86 K | 40.04
366.66 K | 42.51
368.24 K | 45.03
369.87 K | 47.51
371.44 K | 50.01
372.86 K | 52.51
374.31 K | 55.03
375.67 K | 57.52
376.95 K | 60
379.48 K | 65.03
380.68 K | 67.53
381.82 K | 70
382.96 K | 72.52
384.07 K | 75.01
385.13 K | 77.51
386.19 K | 79.99
387.22 K | 82.52
388.21 K | 85.02
389.17 K | 87.54
390.12 K | 89.98
391.06 K | 92.53
391.95 K | 94.92
392.83 K | 97.45
393.71 K | 100.01
394.13 K | 101.31

CCCC(C)O (stereo not given) [pentan-2-ol]
Settings | vapor or sublimation pressure [kPa]
354.47 K | 22.55
356.6 K | 25.05
358.86 K | 27.47
360.81 K | 30.03
362.76 K | 32.55
364.38 K | 35.08
366 K | 37.56
367.49 K | 40.03
369.03 K | 42.51
370.52 K | 45.07
371.77 K | 47.54
373.05 K | 50.02
374.33 K | 52.58
375.51 K | 55.03
376.68 K | 57.48
377.81 K | 60.03
378.95 K | 62.45
379.97 K | 65.05
381.01 K | 67.58
381.96 K | 70.03
382.9 K | 72.56
383.88 K | 75.05
384.79 K | 77.59
385.64 K | 80.03
386.56 K | 82.58
387.35 K | 85.01
388.19 K | 87.55
389 K | 90.09
389.76 K | 92.52
390.55 K | 95.02
391.31 K | 97.55
392.07 K | 100.03
392.26 K | 101.38
